According to patent US4935240A, “Benzoylaminophenoxybutanoic acid derivatives” (Ono Pharmaceutical Co., Ltd., priority 1987, dated 1990):

Target: 5α-reductase
Test: 5α-reductase inhibitory activity in vitro
Format: biochemical
Details: rat prostate enzyme, [4-C14]testosterone + NADPH, 60 mins at 37° C.
Method: 5α-reductase inhibitory activity in vitro
Inhibitory activity on 5α-reductase in vitro was measured by the following test system.
The test was carried out by being referred to the method of J. Shimazaki et al [See Endocrinol, Japan., 18, 179 (1971)].
Male rats' prostate (4g) was homogenized with its 3-fold volume of 0.1 M HEPES buffer (pH 7.4) including 0.25 M cane sugar, and was centrifuged at 3000 r.p.m. for 10 mins.
The precipitate was suspended into the buffer solution described above (10 ml), and the suspension was centrifuged at 3000 r.p.m. for 5 mins. The resulting precipitated was suspended in the buffer solution (3 ml) described above and was used as a sauce of enzyme.
A reaction mixture (total volume 0.1 ml) of [4-c^14 ]testosterone (1.5n mol, 1.5×10^5 cpm), NADPH (0.5 μmol), enzyme solution (0.03 ml) described above and several kinds of concentration of the compounds in the present invention was incubated for 60 mins at 37° C. Enzyme reaction was quenched by addition of a mixture (0.4 ml) of chloroform and methanol (1:2), and the mixture was centrifuged at 2000 r.p.m. for 3 mins. The supernatant (50 μl) was spotted on silica gel thin layer plate. The spot on the plate was developed with a mixture of chloroform, methanol and acetic acid (99.2:0.6:0.2). Radioactivity of dihydrotestosterone generated on the plate was measured by TLC scanner of radio-autography and inhibitory ratio was calculated.

Compound	IC50 [nM]
O=C(O)CCCOc1ccccc1NC(=O)c1ccc(OCc2ccccc2)cc1 [1(a), 4-[2-(4-benzyloxybenzoylamino)phenoxy]butanoic acid]	200
O=C(O)CCCOc1ccccc1NC(=O)c1ccc(OCCCc2ccccc2)cc1 [1(f), 4-[2-[4-(3-phenylpropoxy)benzoylamino]phenoxy]butanoic acid]	200
O=C(O)CCCOc1ccccc1NC(=O)c1ccc(OCCCCc2ccccc2)cc1 [1(g), 4-[2-[4-(4-phenylbutoxy)benzoylamino]phenoxy]butanoic acid]	440
CCCc1ccc(CN(Cc2ccc(CCC)cc2)c2ccc(C(=O)Nc3ccccc3OCCCC(=O)O)cc2)cc1 [2(a), 4-[2-[4-[N, N-bis(4-propylbenzyl)amino]benzoylamino]phenoxy] butanoic acid]	23
Cc1cc(N(Cc2ccc(CC(C)C)cc2)Cc2ccc(CC(C)C)cc2)ccc1C(=O)Nc1ccccc1OCCCC(=O)O [2(b), 4-[2-[4-[N, N-bis(4-isobutylbenzyl)amino]-2-methylbenzoylamino]phenoxy]butanoic]	25
CCCCCN(CCCCC)c1ccc(C(=O)Nc2ccccc2OCCCC(=O)O)c(C)c1 [2(c), 4-[2-[4-[N, N-dipenthylamino)-2-methylbenzoylamino]phenoxy] butanoic acid]	300
CCCCCN(Cc1ccc(CCC)cc1)c1ccc(C(=O)Nc2ccccc2OCCCC(=O)O)c(C)c1 [2(d)]	25
CCCc1ccc(CN(C)c2ccc(C(=O)Nc3ccccc3OCCCC(=O)O)c(C)c2)cc1 [2(e), 4-[2-[4-[N-methyl-N-(4-propylbenzyl)amino]-2-methylbenzoylamino]phenoxy]butanoic]	44
Cc1cc(N(CCCCc2ccccc2)CCCCc2ccccc2)ccc1C(=O)Nc1ccccc1OCCCC(=O)O [2(f), 4-[2-[4-[N, N-bis(4-phenylbutyl)amino]-2-methylbenzoylamino]phenoxy]butanoic]	170
Cc1cc(N(Cc2ccc(C(C)C)cc2)Cc2ccc(C(C)C)cc2)ccc1C(=O)Nc1ccccc1OCCCC(=O)O [2(g), 4-[2-[4-[N, N-bis(4-isopropylbenzyl)amino]-2-methylbenzoylamino]phenoxy] butanoic]	27
Cc1cc(N(Cc2ccc(F)cc2F)Cc2ccc(F)cc2F)ccc1C(=O)Nc1ccccc1OCCCC(=O)O [2(h)]	140
CCCc1ccc(CN(C(=O)c2ccc(CCC)cc2)c2ccc(C(=O)Nc3ccccc3OCCCC(=O)O)c(C)c2)cc1 [2(i)]	150
Cc1cc(N(Cc2ccccc2C(F)(F)F)Cc2ccccc2C(F)(F)F)ccc1C(=O)Nc1ccccc1OCCCC(=O)O [2(j)]	26
Cc1cc(N(Cc2ccc(C(F)(F)F)cc2)Cc2ccc(C(F)(F)F)cc2)ccc1C(=O)Nc1ccccc1OCCCC(=O)O [2(k), 4-[2-[4-[N,N-bis-(4-trifluoromethylbenzyl)amino]-2-methylbenzoylamino]phenoxy] butanoic]	580
Cc1cc(NCc2ccccc2C(F)(F)F)ccc1C(=O)Nc1ccccc1OCCCC(=O)O [2(q), 4-[2-[4-(2-trifluoromethylbenzylamino)-2-methylbenzoylamino]phenoxy] butanoic]	220
CCCc1ccc(C(Nc2ccc(C(=O)Nc3ccccc3OCCCC(=O)O)c(C)c2)c2ccc(CCC)cc2)cc1 [2(r), 4-[2-[4-[bis(4-propylphenyl)methylamino]-2-methylbenzoylamino]phenoxy] butanoic]	2.5
CCCc1ccc(C(Nc2ccc(C(=O)Nc3ccccc3OCCCC(=O)O)cc2)c2ccc(CCC)cc2)cc1 [2(s), 4-[2-[4-[bis(4-propylphenyl)methylamino]benzoylamino]phenoxy] butanoic acid]	11
CCCc1ccc(CNc2ccc(C(=O)Nc3ccccc3SCCCC(=O)O)c(C)c2)cc1 [3(a), 4-[2-[4-(4-propylbenzylamino)-2-methylbenzoylamino]phenylthio] butanoic acid]	56
CCCc1ccc(CN(Cc2ccc(CCC)cc2)c2ccc(C(=O)Nc3ccccc3SCCCC(=O)O)c(C)c2)cc1 [3(b), 4-[2-[4-[N,N-bis(4-propylbenzyl)amino]-2-methylbenzoylamino]phenylthio]butanoic]	25
CCCc1ccc(C(Oc2ccc(C(=O)Nc3ccccc3OCCCC(=O)O)cc2)c2ccc(CCC)cc2)cc1 [4(a), 4-[2-[4-[bis(4-propylphenyl)methoxy]benzoylamino]phenoxy] butanoic acid]	3
CCCc1ccc(C(Oc2ccc(C(=O)Nc3ccccc3OCCCC(=O)O)c(C)c2)c2ccc(CCC)cc2)cc1 [4(b), 4-[2-[4-[bis(4-propylphenyl)methoxy]-2-methylbenzoylamino]phenoxy]butanoic]	6.5
O=C(O)CCCOc1ccccc1NC(=O)c1ccc(CNc2cccc3c2CCCC3)cc1 [6(b), 4-[2-[4-(5,6,7,8-tetrahydronaphthalene-1-yl)aminomethylbenzoylamino]phenoxy] butanoic]	230
CN(Cc1ccc(C(=O)Nc2ccccc2OCCCC(=O)O)cc1)c1cccc2c1CCCC2 [6(c), 4-[2-[4-[N-methyl-N-(5,6,7,8,- tetrahydronaphthalene-1-yl)aminomethyl]benzoylamino]phenoxy] butanoic acid]	140
O=C(O)CCCOc1ccccc1NC(=O)c1ccc(OCCCCc2ccccc2)cc1 [Compared compound 2, reference compound]	> 20000
CCCc1ccc(CN(Cc2ccc(CCC)cc2)c2ccc(C(=O)Nc3ccccc3OCCCC(=O)O)c(C)c2)cc1 [Example 2, 4-[2-[2-methyl-4-[N,N-bis(4-propylbenzyl)amino]benzoylamino]phenoxy]butanoic acid]	11
CCCc1ccc(CN(Cc2ccc(CCC)cc2)c2ccc(C(=O)Nc3ccccc3[S+]([O-])CCCC(=O)O)c(C)c2)cc1 (centres unmarked) [Example 5, 4-[2-[4-[N,N-bis(4-propylbenzyl)amino]-2-methylbenzoylamino]phenylsulfinyl]butanoic acid]	65

More lines, now with the values ahead:

IC50 [nM]	Compound
330	Cc1ccc(COc2ccc(C(=O)Nc3ccccc3OCCCC(=O)O)cc2)cc1 [1(b), 4-[2-[4-(4-methylphenylmethoxy)benzoylamino]phenoxy]butanoic acid]
320	CCc1ccc(COc2ccc(C(=O)Nc3ccccc3OCCCC(=O)O)cc2)cc1 [1(c), 4-[2-[4-(4-ethylphenylmethoxy)benzoylamino]phenoxy]butanoic acid]
130	CCCc1ccc(COc2ccc(C(=O)Nc3ccccc3OCCCC(=O)O)cc2)cc1 [1(d), 4-[2-[4-(4-propylphenylmethoxy)benzoylamino]phenoxy]butanoic acid]
220	CC(C)c1ccc(COc2ccc(C(=O)Nc3ccccc3OCCCC(=O)O)cc2)cc1 [1(e), 4-[2-[4-(4-isopropylphenylmethoxy)benzoylamino]phenoxy]butanoic acid]
570	Cc1cc(OCc2ccc(CC(C)C)cc2)ccc1C(=O)Nc1ccccc1OCCCC(=O)O [1(h), 4-[2-[4-(4-isobutyphenylmethoxy)-2-methylbenzoylamino]phenoxy]butanoic acid]
430	Cc1cc(C(=O)Nc2ccccc2OCCCC(=O)O)ccc1OCc1ccc(CC(C)C)cc1 [1(i), 4-[2-[4-(4-isobutyphenylmethoxy)-3-methylbenzoylamino]phenoxy]butanoic acid]
150	CC(C)Cc1ccc(CNc2ccc(C(=O)Nc3ccccc3OCCCC(=O)O)cc2)cc1 [2(l), 4-[2-[4-(4-isobutylbenzylamino)benzoylamino]phenoxy] butanoic acid]
120	Cc1cc(NCc2ccc(CC(C)C)cc2)ccc1C(=O)Nc1ccccc1OCCCC(=O)O [2(m), 4-[2-[4-(4-isobutylbenzylamino)-2-methylbenzoylamino]phenoxy] butanoic acid]
40	CCCc1ccc(CNc2ccc(C(=O)Nc3ccccc3OCCCC(=O)O)c(C)c2)cc1 [2(n), 4-[2-[4-(4-propylbenzylamino)-2-methylbenzoylamino]phenoxy] butanoic acid]
35	Cc1cc(NC(C)c2ccc(CC(C)C)cc2)ccc1C(=O)Nc1ccccc1OCCCC(=O)O (centres unmarked) [2(o), 4-[2-[4-[1-(4-isobutylphenyl)ethylamino]-2-methylbenzoylamino]pehnoxy]butanoic]
80	Cc1cc(NCc2ccc(C(C)C)cc2)ccc1C(=O)Nc1ccccc1OCCCC(=O)O [2(p), 4-[2-[4-(4-isopropylbenzylamino)-2-methylbenzoylamino]phenoxy] butanoic acid]
80	CC(C)Cc1ccc(COc2ccc(C(=O)Nc3ccccc3OCCCC(=O)O)cc2)cc1 [Example 1, 4-[2-[4-(4-isobutylphenylmethoxy)benzoylamino]phenoxy]butanoicacid]
